Laboratory results reported in PMC3118801, “Tyrosine Kinase Syk Non-Enzymatic Inhibitors and Potential Anti-Allergic Drug-Like Compounds Discovered by Virtual and In Vitro Screening” (PLoS ONE, 2011).
Converted amounts (≈) assume the structure as drawn. Like-named read-outs stand apart in the source and are kept apart here.

Assays:
Syk [1] = biological target: T1, Syk (Homo sapiens, UniProt P43405); assay: Direct binding to Syk by fluorescence spectroscopy
Procedure: Direct binding to Syk of a selection of these 85 compounds was investigated using fluorescence spectroscopy.
For each compound, the ChemBridge ID and the cluster to which it belongs are reported. Direct binding to Syk of some compounds was measured using fluorescence spectroscopy (Kd: dissociation constant). Antibody inhibition percentage reflects the capacity of each compound to inhibit the binding of scFv G4G11 to Syk (final concentrations of 10 µM for small molecules and 100 nM for G4G11). The ability of each compound to inhibit the liberation of allergic mediators from mast cells is measured (**: IC50 values of cell degranulation ≥20 µM). Some physicochemical properties computed with FAFDrugs2, as well as the possible ADMET problems detected by our tool are reported. The computations involved: molecular weight (MW), logP, topological polar surface area (tPSA), H-bond acceptors and donors (HBA, HBD). (PDF) Click here for additional data file.

RBL-2H3 mast cells [2] = assay: Ionomycin-induced degranulation as control of the degranulation machinery (toxic effects); assay type: cell-based, rat; conditions: ionomycin treatment, concentrations up to 10 µM
Procedure: To address the possible toxic effects of these compounds on degranulation, we performed a dose-dependent experiment in which FcεRI-dependent degranulation of mast cells was performed in parallel with ionomycin-induced degranulation as a control of the degranulation machinery. […] The ADMET profile of our 10 bioactive compounds was analyzed further. […] In addition, the solubility was measured experimentally and the Lipinski “rule of five” descriptors were computed to probe further the molecules from cluster 2 (Table 1).
Figure 5 Compounds 7501888 and 7722851 impair FcεRI-induced mast cell degranulation. β-hexosaminidase release from mast cells was evaluated in comparison to ionomycin-induced degranulation as a control of the machinery.

RBL-2H3 mast cells [3] = assay: FcεRI-induced β-hexosaminidase release (mast cell degranulation); assay type: cell-based, rat
Procedure: The 85 compounds were then tested in a cellular functional assay in order to evaluate their ability to inhibit the liberation of allergic mediators from mast cells. The test is based on the measure of the liberation by exocytosis of the enzyme β-hexosaminidase following the stimulation of the FcεRI, the high affinity receptor for IgE at the surface of mast cells. To this aim, RBL-2H3 mast cells were incubated with each compound for one hour at a final concentration of 20 µM, and β-hexosaminidase release following FcεRI stimulation was measured.
The mouse IgE anti-DNP monoclonal antibody 2682-I was used as hybridoma culture supernatants which contained 1 µg ml^−1 IgE. RBL-2H3 rat basophilic leukaemia cells (ATCC) were maintained as monolayer cultures in RPMI 1640 medium supplemented with 10% fetal bovine serum (Gibco). Measurements of β-hexosaminidase release in RBL-2H3 cells were performed as described, except that after 12–16 h incubation with anti-DNP IgE (0.5 µg ml^−1), cells were incubated for 90 min at 37°C in RPMI medium supplemented with the indicated concentrations of small molecules or DMSO (0.25%). Cells were challenged for 45 min with DNP-BSA (50 ng ml^−1).

[4] = Solubility measurement in PBS by HPLC; assay type: physicochemical; conditions: aqueous buffer, kinetic from dmso stock, from 10 mM DMSO stock, 25°C
Procedure: 4 µl of a 10 mM DMSO stock solution from of each sample were dissolved in 400 µl of PBS and sonicated for 5 minutes. The samples were centrifuged for 15 minutes at 4000 rpm at 25°C, then 250 µl of each sample were transferred to a 96 well plate. 10 µl of each sample were analyzed by HPLC and the sample concentrations were calculated against a series of caffeine standards ranging from 1 to 100 µM.

[5] = biological target: T2, Syk (GST:Syk 6-242 fusion protein) (Homo sapiens, UniProt P43405); assay: ELISA-based Antibody Displacement Assay (binding of scFv G4G11 to Syk); conditions: 10 µM small molecule, 100 nM G4G11
T2 construct: Recombinant GST:Syk 6-242 fusion protein [34] was immobilized on an ELISA plate; made in house
Procedure: To determine the ability of the compounds to affect the binding of scFv G4G11 to Syk in vitro, we tested them individually in an ELISA-based Antibody Displacement Assay (see Materials and Methods). For this purpose, all 1000 compounds were reconstituted in DMSO, and they were tested at a final concentration of 10 µM in PBS. Compound C-13 was reconstituted in DMF and was used in parallel as a control. The capacity of each compound to inhibit the binding of G4G11 to Syk was evaluated in comparison to the binding of G4G11 to Syk in PBS (final concentration of 100 nM) containing the appropriate concentrations of DMSO or DMF.
Recombinant GST:Syk 6-242 fusion protein [34] was immobilized on an ELISA plate at final concentration of 10 µg ml^−1. For the screening assay, small molecules diluted in PBS at final concentration of 10 µM were added to the wells for one hour at RT, before adding myc-tagged scFv G4G11 at final concentration of 100 nM for one additional hour. The binding of G4G11 to Syk was evaluated by adding HRP-conjugated mAb 9E10 which detects the amino acid sequence EQKLISEEDLN of human c-myc protein located at the C-terminal end of the scFv.

anaphylactic shock = test system: anaphylactic shock; parameters: method as in PMID 18539317; conditions: administered orally to mice; cited from earlier work
Syk [6] = biological target: T1, Syk; parameters: method as in PMID 18539317; conditions: cited from earlier work
RBL-2H3 mast cells [7] = test system: RBL-2H3 mast cells; parameters: method as in PMID 18539317; conditions: cited from earlier work
[8] = Rattus norvegicus, Table 1, RBL-2H3, FcεRI stimulation, β-hexosaminidase release, read-out: IC50 Cell Degranulation
[9] = Rattus norvegicus, RBL-2H3, Table S1, class symbol, read-out: IC50 Cell Degranulation
[10] = Table S1, class symbol, read-out: IC50 Cell Degranulation

| Structure (SMILES) | Antibody Inhibition [5] | IC50 (RBL-2H3 mast cells [3]; [10]) | also measured |
| --- | --- | --- | --- |
| COc1cc(-c2nnc(SCC(=O)Nc3ccc(Cl)cc3)n2CCc2ccccc2)cc(OC)c1OC [compound 7501888] | 40% |  | Kd (Syk [1]; Table 1): 8.2 µM; toxic effect on mast cells responses (RBL-2H3 mast cells [2]): no major toxic effect; IC50 (RBL-2H3 mast cells [3]; [8]): 4 µM; solubility at 5 min [4]: 6 µM (≈ 3.23 µg/mL) |
| COC(=O)c1ccc(NC(=O)CN(c2cccc(OC)c2)S(=O)(=O)c2ccccc2)cc1 [compound 7787455] | 20% |  | IC50 (RBL-2H3 mast cells [3]; [9]): ≥ 20 µM |
| COc1ccc(OC)c(C2C(=C(O)c3ccc(C)cc3)C(=O)C(=O)N2Cc2cccnc2)c1 (stereo not shown) [compound 6652639] | 70.5% | ≥ 20 µM |  |
| COc1ccc(C2C(=C(O)c3ccc(C)cc3)C(=O)C(=O)N2CCN2CCOCC2)cc1 (stereo not shown) [compound 6670747] | 50% | ≥ 20 µM |  |
| N#CC1=C(N)Oc2[nH]nc(-c3ccccc3)c2C1c1cccc(OC(=O)c2ccco2)c1 (stereo not shown) [compound 6669449] | 42% |  | IC50 (RBL-2H3 mast cells [3]; [9]): ≥ 20 µM |
| COc1cccc(C2C(=C(O)c3ccc(C)cc3)C(=O)C(=O)N2CCCN2CCOCC2)c1 (stereo not shown) [compound 6882059] | 79.5% | ≥ 20 µM | Kd (Syk [1]; Table S1): 9.4 µM |
| C=CCn1c(SCC(=O)Nc2cccc(OC)c2)nnc1C(C)NC(=O)c1ccccc1 (stereo not shown) [compound 7752193] | 35% |  | Kd (Syk [1]; Table 1): 8 µM; IC50 (RBL-2H3 mast cells [3]; [8]): 10 µM; solubility at 5 min [4]: 0.3 µM (≈ 0.135 µg/mL) |
| COc1cccc(C2C(=C(O)c3ccccc3)C(=O)C(=O)N2CCCN2CCOCC2)c1OC (stereo not shown) [compound 6891745] | 27.5% | ≥ 20 µM |  |
| COc1ccccc1C(=O)Nc1ccc(-c2nnc(SCC(=O)c3ccccc3)n2C)cc1 [compound 6282824] | 67.5% |  | Kd (Syk [1]; Table 1): 5.6 µM; IC50 (RBL-2H3 mast cells [3]; [8]): 5 µM; solubility at 5 min [4]: 4.5 µM (≈ 2.06 µg/mL) |
| CCOC(=O)c1ccc(NC(=O)CC2C(=O)N(c3ccc(Cl)cc3)C(=S)N2Cc2cccnc2)cc1 (stereo not shown) [compound 7722851] | 39.5% |  | Kd (Syk [1]; Table S1): 21.8 µM; toxic effect on mast cells responses (RBL-2H3 mast cells [2]): no major toxic effect; IC50 (RBL-2H3 mast cells [3]; Rattus norvegicus, RBL-2H3, FcεRI-dependent degranulation of mast cells, read-out: IC50 (degranulation)): 4 µM |
| COc1cc(NS(=O)(=O)c2ccc(NC(C)=O)cc2)c(OC)cc1NC(=O)c1ccccc1 [compound 6853966] | 58% | ≥ 20 µM |  |
| COc1ccc(C2C(=C(O)c3ccc(F)cc3)C(=O)C(=O)N2CCN2CCOCC2)c(OC)c1 (stereo not shown) [compound 6670673] | 50% | ≥ 20 µM |  |
| COc1ccc(C2C(C(=O)c3cccs3)=C(O)C(=O)N2CCN2CCOCC2)cc1OC (stereo not shown) [compound 6677533] | 50% |  | IC50 (RBL-2H3 mast cells [3]; [9]): ≥ 20 µM |
| CCOC(=O)c1ccc(NC(=O)CSc2nnc(-c3ccco3)c(-c3ccco3)n2)cc1 [compound 7495334] | 43% |  | Kd (Syk [1]; Table 1): 1.6 µM; IC50 (RBL-2H3 mast cells [3]; [8]): 10 µM; solubility at 5 min [4]: 35.2 µM (≈ 15.9 µg/mL) |
| CCOc1ccc(NC(=O)CC2C(=O)N(c3ccc(OC)cc3)C(=S)N2CCN2CCOCC2)cc1 (stereo not shown) [compound 7722914] | 19% |  | Kd (Syk [1]; Table S1): 15.6 µM; IC50 (RBL-2H3 mast cells [3]; Rattus norvegicus, RBL-2H3, Table S1, numeric values, read-out: IC50 Cell Degranulation): 15 µM |
| O=C(Nc1ccccc1C(=O)N1CCCC1)c1ccc(CN2CCc3ccccc3C2)cc1 [compound 7199725] | 25% | ≥ 20 µM |  |
| COc1ccc(C2C(=C(O)c3ccc(F)cc3)C(=O)C(=O)N2CCN2CCOCC2)cc1OC (stereo not shown) [compound 6654239] | 50% | ≥ 20 µM |  |
| Cc1ccc(-c2nnc(Nc3cccc(O)c3)c3ccccc23)cc1S(=O)(=O)NC(C)(C)CO [compound 7238569] | 32% | ≥ 20 µM |  |
| Cc1ccc(-n2c3c(cc(C(=O)NC4CC(C)(C)NC(C)(C)C4)c2=O)C(=O)CC(C)(C)C3)cc1 [compound 6866968] | 57.5% | ≥ 20 µM |  |
| COc1ccc(S(=O)(=O)N(CCc2ccccc2)CC(=O)Nc2ccc(C(N)=O)cc2)cc1 [compound 6498669] | 63% | ≥ 20 µM | Kd (Syk [1]; Table S1): 0.8 µM |
| C=CCn1c(CNC(=O)c2cccc(C)c2)nnc1SCC(=O)Nc1cccc(C(=O)OC(C)C)c1 [compound 7783660] | 27% |  | Kd (Syk [1]; Table 1): 4.8 µM; IC50 (RBL-2H3 mast cells [3]; [8]): 10 µM; solubility at 5 min [4]: 12.9 µM (≈ 6.55 µg/mL) |
| COC(=O)c1ccccc1-c1ccc(C=C2SC(=S)N(Cc3ccccc3)C2=O)o1 [C-13, methyl 2-{5-[(3-benzyl-4-oxo-2-thioxo-1,3-thiazolidin-5-ylidene)methyl]-2-furyl}benzoate, reference compound] | 81% |  | Kd (Syk [1]; Table 1): 4 µM; anaphylactic shock in vivo (anaphylactic shock): inhibits; IC50 (RBL-2H3 mast cells [3]; [8]): 2 µM; effects on the enzymatic activity of Syk (Syk [6]): no effects; FcεRI-induced mast cell degranulation in vitro (RBL-2H3 mast cells [7]): inhibits |
